ChEMBL document CHEMBL1151617, “Antitumor agents, 65. Brusatol and cleomiscosin-A, antileukemic principles from Brucea javanica” (1984)
Converted amounts (≈) assume the structure as drawn.

Key:
Assay type in all cases: functional
P388 [1] = assay: In vivo antitumor activity against mouse P388 cells at 0.125 ug/kg/day, ip
P388 [2] = assay: Cytotoxicity against mouse P388 cells; details: read-out: ED50 (the source's name)
KB = assay: Cytotoxicity against human KB cells; details: read-out: ED50 (the source's name)

SMILES | T/C (P388 [1]) [%] | EC50 (P388 [2]) [µg/mL] | EC50 (KB) [µg/mL]
COC(=O)[C@]12OC[C@]34[C@H]([C@@H](O)[C@@H]1O)[C@@]1(C)CC(=O)C(O)=C(C)[C@@H]1C[C@H]3OC(=O)[C@H](OC(=O)C=C(C)C)[C@@H]24 [BRUSATOL] | 158 |  | 
COc1cc([C@H]2Oc3c(OC)cc4ccc(=O)oc4c3O[C@@H]2CO)ccc1O [CLEOMISCOSIN A] |  | 0.4 (≈ 1.04 µM) | > 10
